# Source: paper PMC5515969, “Effects of 31 FDA approved small-molecule kinase inhibitors on isolated rat liver mitochondria” (Archives of Toxicology, 2016)
# Experiments:
# [1] = system: isolated rat liver mitochondria; assay: Mitochondrial oxygen consumption (glutamate/malate or succinate driven, state 4 and state 3); assay type: biochemical; details: DMSO treated samples set as 1; as to State 3 respiration driven by succinate at 10XCmax: key: 0 indicates that the drug had no effects (negative); as to State 3 respiration driven by succinate at 1XCmax: key: 0 indicates that the drug had no effects (negative)
# Summary of the method: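 Rat liver mitochondria (1 mg/ml protein) exposed 5 min to kinase inhibitors in 0.1% DMSO, then O2 consumption measured by Clark-type electrode with glutamate/malate or succinate (state 4), ADP added after 3 min (state 3). Rates normalized to 0.1% DMSO controls set to 1.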
# RCC I = RCC I activity in submitochondrial particles; assay type: biochemical, rat; design: key to RCC I at 10XCmax / RCC I at 100XCmax / RCC I at 50XCmax / RCC I at 30XCmax / RCC I at 20XCmax: activity relative to DMSO-treated controls (control set as 1 = 100%); details: 10XCmax; DMSO treated samples set as 1
# Summary of the method: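 Activity relative to DMSO (set as 1) after 15-min exposure of submitochondrial particles (1 mg/ml) to compound. RCC I is defined as rotenone-sensitive activity and RCC II is followed at 600 nm over 6 min.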
# RCC II = target: T1, RCC II (Rattus norvegicus, UniProt P21913+Q641Z9+Q6PCT8+Q920L2); assay: RCC II activity in submitochondrial particles; assay type: biochemical; design: key: activity relative to DMSO-treated controls (control set as 1 = 100%); details: DMSO treated samples set as 1
# T1 construct: Submitochondrial particles were prepared by subjecting the intact mitochondria to three successive freeze–thaw cycles; from tissue; host or cells: rat liver mitochondria, used as submitochondrial particles
# T1 sequence (Q920L2 35-656): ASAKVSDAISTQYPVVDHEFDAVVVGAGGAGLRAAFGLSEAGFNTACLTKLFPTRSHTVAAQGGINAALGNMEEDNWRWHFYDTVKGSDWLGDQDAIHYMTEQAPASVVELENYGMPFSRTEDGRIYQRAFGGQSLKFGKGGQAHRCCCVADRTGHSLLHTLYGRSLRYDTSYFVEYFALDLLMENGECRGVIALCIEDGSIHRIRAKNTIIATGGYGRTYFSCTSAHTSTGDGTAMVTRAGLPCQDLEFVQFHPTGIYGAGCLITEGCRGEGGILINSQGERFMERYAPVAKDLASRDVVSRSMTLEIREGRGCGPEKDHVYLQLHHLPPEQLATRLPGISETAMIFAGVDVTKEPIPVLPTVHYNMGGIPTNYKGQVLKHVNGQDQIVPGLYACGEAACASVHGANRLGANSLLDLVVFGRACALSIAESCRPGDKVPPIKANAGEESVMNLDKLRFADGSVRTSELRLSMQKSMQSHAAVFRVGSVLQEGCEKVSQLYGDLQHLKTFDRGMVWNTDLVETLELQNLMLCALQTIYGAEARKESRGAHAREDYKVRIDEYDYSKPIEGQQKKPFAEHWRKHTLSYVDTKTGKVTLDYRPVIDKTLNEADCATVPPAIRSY
# T1 sequence (P21913 31-282): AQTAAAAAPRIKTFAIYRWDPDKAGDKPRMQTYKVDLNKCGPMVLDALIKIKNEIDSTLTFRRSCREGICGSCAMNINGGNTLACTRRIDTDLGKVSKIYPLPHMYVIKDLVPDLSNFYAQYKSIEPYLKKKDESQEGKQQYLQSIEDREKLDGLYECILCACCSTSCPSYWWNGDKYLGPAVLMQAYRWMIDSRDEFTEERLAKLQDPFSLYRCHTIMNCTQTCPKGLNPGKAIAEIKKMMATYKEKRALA
# T1 sequence (Q641Z9 1-169): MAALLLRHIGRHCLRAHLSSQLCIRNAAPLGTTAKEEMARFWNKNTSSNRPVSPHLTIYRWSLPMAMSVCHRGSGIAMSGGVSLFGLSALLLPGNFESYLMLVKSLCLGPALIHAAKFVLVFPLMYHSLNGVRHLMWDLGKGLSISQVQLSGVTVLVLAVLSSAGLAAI
# T1 sequence (Q6PCT8 57-159): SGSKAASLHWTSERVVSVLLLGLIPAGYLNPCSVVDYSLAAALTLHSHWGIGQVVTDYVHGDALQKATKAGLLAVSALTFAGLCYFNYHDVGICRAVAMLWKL
# Summary of the method: (§1)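 First, submitochondrial particles (1 mg/ml) are incubated with inhibitor for 15 min. Next, complex activities are followed spectrophotometrically, with RCC I taken as the difference between buffers lacking and containing rotenone. Finally, activities are expressed relative to DMSO controls set at 1.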
# RCC III = RCC III activity in submitochondrial particles; assay type: biochemical, rat; design: key to RCC III at 100XCmax: activity relative to DMSO-treated controls (control set as 1 = 100%); details: 100XCmax
# Summary of the method: as §1
# RCC V = RCC V activity in submitochondrial particles; assay type: biochemical, rat; details: DMSO treated samples set as 1; as to RCC V at 5XCmax: key: 0 indicates that the drug had no effects (negative)
# Summary of the method: as §1
# [2] = system: isolated rat liver mitochondria; assay: Mitochondrial inner membrane potential (MMP), Rhodamine 123; assay type: biochemical; details: difference in signal between KI and DMSO treated samples at the end of experiments
# Source text: Fig. 3 KI effects on mitochondrial inner membrane potential (MMP). […] In a, c, data are means and standard derivations from three separate experiments. *p < 0.05 as compared to DMSO-treated samples at the end of experiments. In b, data are means of two independent experiments
# [3] = system: isolated rat liver mitochondria; details: positive control alamethicin treated samples
# [4] = read-out: Cmax at µM; human therapeutic maximal blood concentration; ref product labeling; cited from earlier work
# [5] = system: isolated rat liver mitochondria; assay: Mitochondrial ROS production (CM-H2DCFDA); details: DMSO treated samples set as 1
smiles,measurement,setting,value
O=C(c1ccc(F)c(F)c1Nc1ccc(I)cc1F)N1CC(O)([C@@H]2CCCCN2)C1 [Cobimetinib],State 3 respiration driven by glutamate/malate at 1XCmax,[1]; 1XCmax,0
same,State 3 respiration driven by succinate at 1XCmax,[1]; 1XCmax,0
same,State 4 respiration driven by glutamate/malate at 1XCmax,[1]; 1XCmax,0
same,State 4 respiration driven by succinate at 1XCmax,[1]; 1XCmax,0
same,State 3 respiration driven by glutamate/malate at 2.5XCmax,[1]; 2.5XCmax,0
same,State 3 respiration driven by succinate at 2.5XCmax,[1]; 2.5XCmax,0
same,State 4 respiration driven by glutamate/malate at 2.5XCmax,[1]; 2.5XCmax,0
same,State 4 respiration driven by succinate at 2.5XCmax,[1]; 2.5XCmax,0
same,State 3 respiration driven by glutamate/malate at 5XCmax,[1]; 5XCmax,0
same,State 3 respiration driven by succinate at 5XCmax,[1]; 5XCmax,0
same,State 4 respiration driven by glutamate/malate at 5XCmax,[1]; 5XCmax,0
same,State 4 respiration driven by succinate at 5XCmax,[1]; 5XCmax,0
same,State 3 respiration driven by glutamate/malate at 10XCmax,[1]; 10XCmax,0
same,State 3 respiration driven by succinate at 10XCmax,[1]; 10XCmax,0
same,State 4 respiration driven by glutamate/malate at 10XCmax,[1]; 10XCmax,0
same,State 4 respiration driven by succinate at 10XCmax,[1]; 10XCmax,0
same,State 3 respiration driven by glutamate/malate at 20XCmax,[1]; 20XCmax,0
same,State 3 respiration driven by succinate at 20XCmax,[1]; 20XCmax,0
same,State 4 respiration driven by glutamate/malate at 20XCmax,[1]; 20XCmax,0
same,State 4 respiration driven by succinate at 20XCmax,[1]; 20XCmax,0
same,State 3 respiration driven by glutamate/malate at 30XCmax,[1]; 30XCmax,0
same,State 3 respiration driven by succinate at 30XCmax,[1]; 30XCmax,0
same,State 4 respiration driven by glutamate/malate at 30XCmax,[1]; 30XCmax,0
same,State 4 respiration driven by succinate at 30XCmax,[1]; 30XCmax,0
same,State 3 respiration driven by glutamate/malate at 50XCmax,[1]; 50XCmax,0
same,State 3 respiration driven by succinate at 50XCmax,[1]; 50XCmax,0
same,State 4 respiration driven by glutamate/malate at 50XCmax,[1]; 50XCmax,0
same,State 4 respiration driven by succinate at 50XCmax,[1]; 50XCmax,0
same,State 3 respiration driven by glutamate/malate at 100XCmax,[1]; 100XCmax,0
same,State 3 respiration driven by succinate at 100XCmax,[1]; 100XCmax,0
same,State 4 respiration driven by glutamate/malate at 100XCmax,[1]; 100XCmax,0
same,State 4 respiration driven by succinate at 100XCmax,[1]; 100XCmax,0
same,RCC I at 10XCmax,RCC I,0
same,RCC II at 1.0XCmax,RCC II; 1.0XCmax,0
same,RCC II at 2.5XCmax,RCC II; 2.5XCmax,0
same,RCC II at 5XCmax,RCC II; 5XCmax,0
same,RCC II at 10XCmax,RCC II; 10XCmax,0
same,RCC II at 20XCmax,RCC II; 20XCmax,0
same,RCC II at 30XCmax,RCC II; 30XCmax,0
same,RCC II at 50XCmax,RCC II; 50XCmax,0
same,RCC II at 100XCmax,RCC II; 100XCmax,0
same,RCC III at 100XCmax,RCC III,0
same,RCC V at 5XCmax,RCC V; 5XCmax,0
same,RCC V at 50XCmax,RCC V; 50XCmax,0
same,MMP measured by Rhodamine 123 at 1XCmax,[2]; 1XCmax,0
same,MMP measured by Rhodamine 123 at 2.5XCmax,[2]; 2.5XCmax,0
same,MMP measured by Rhodamine 123 at 5XCmax,[2]; 5XCmax,0
same,MMP measured by Rhodamine 123 at 10XCmax,[2]; 10XCmax,0
same,MMP measured by Rhodamine 123 at 20XCmax,[2]; 20XCmax,0
same,MMP measured by Rhodamine 123 at 30XCmax,[2]; 30XCmax,0
same,MMP measured by Rhodamine 123 at 50XCmax,[2]; 50XCmax,0
same,MMP measured by Rhodamine 123 at 100XCmax,[2]; 100XCmax,0
same,Cytochrome c release 1XCmax,[3]; 1XCmax,0
same,Cytochrome c release 2.5XCmax,[3]; 2.5XCmax,0
same,Cytochrome c release 5XCmax,[3]; 5XCmax,0
same,Cytochrome c release 10XCmax,[3]; 10XCmax,0
same,Cytochrome c release 20XCmax,[3]; 20XCmax,0
same,Cytochrome c release 30XCmax,[3]; 30XCmax,0
same,Cytochrome c release 50XCmax,[3]; 50XCmax,0
same,Cytochrome c release 100XCmax,[3]; 100XCmax,0
same,Cmax,[4],0.51 µM
same,ROS measured by CM-H2DCFDA at 1XCmax,[5]; 1XCmax,0
same,ROS measured by CM-H2DCFDA at 2.5XCmax,[5]; 2.5XCmax,0
same,ROS measured by CM-H2DCFDA at 5XCmax,[5]; 5XCmax,0
same,ROS measured by CM-H2DCFDA at 10XCmax,[5]; 10XCmax,0
same,ROS measured by CM-H2DCFDA at 20XCmax,[5]; 20XCmax,0
same,ROS measured by CM-H2DCFDA at 30XCmax,[5]; 30XCmax,0
same,ROS measured by CM-H2DCFDA at 50XCmax,[5]; 50XCmax,0
same,ROS measured by CM-H2DCFDA at 100XCmax,[5]; 100XCmax,0
